This note sets out measurements from ChEMBL document CHEMBL1147701, “Novel 4-anilinoquinazolines with C-6 carbon-linked side chains: synthesis and structure-activity relationship of a series of potent, orally active, EGF receptor tyrosine kinase inhibitors” (Bioorg Med Chem Lett, 2006).

Data set [1] addresses Mitogen-activated protein kinase 1 (Homo sapiens, UniProt P28482). The data set can be described thus: Inhibition of MAPK.
The target of data set [2] is cAMP-dependent protein kinase (PKA) (Homo sapiens, UniProt P22694+P17612+P22612). The data set can be described thus: Inhibition of PKA. The class given is protein assay.
Data set [3] in a line: Clearance in rat at 5 mg/kg, po and 2 mg/kg, iv. The class given is ADME, organism-based. As to conditions: in vivo.
Data set [4] concerns the target T1, Serine/threonine-protein kinase Chk1 (Homo sapiens, UniProt O14757).
T1 sequence (O14757 whole entry): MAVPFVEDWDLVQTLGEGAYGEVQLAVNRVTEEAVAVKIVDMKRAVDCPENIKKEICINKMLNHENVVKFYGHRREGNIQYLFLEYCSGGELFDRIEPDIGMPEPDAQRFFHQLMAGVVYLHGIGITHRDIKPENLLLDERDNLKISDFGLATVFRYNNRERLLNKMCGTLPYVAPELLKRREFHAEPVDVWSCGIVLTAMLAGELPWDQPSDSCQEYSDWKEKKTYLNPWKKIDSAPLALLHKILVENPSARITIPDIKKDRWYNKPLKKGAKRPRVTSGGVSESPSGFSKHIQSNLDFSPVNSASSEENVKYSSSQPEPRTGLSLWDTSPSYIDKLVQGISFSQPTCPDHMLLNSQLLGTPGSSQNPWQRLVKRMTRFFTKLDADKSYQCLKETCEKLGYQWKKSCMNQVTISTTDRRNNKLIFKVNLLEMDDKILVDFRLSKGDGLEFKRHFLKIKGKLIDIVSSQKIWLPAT
The data set is described as follows: Inhibition of CHK1.

The target in data set [5] is Rho-associated protein kinase 2 (Homo sapiens, UniProt O75116). The data set is described as follows: Inhibition of ROCK2.
Rho-associated protein kinase 2, sequence (O75116 whole entry): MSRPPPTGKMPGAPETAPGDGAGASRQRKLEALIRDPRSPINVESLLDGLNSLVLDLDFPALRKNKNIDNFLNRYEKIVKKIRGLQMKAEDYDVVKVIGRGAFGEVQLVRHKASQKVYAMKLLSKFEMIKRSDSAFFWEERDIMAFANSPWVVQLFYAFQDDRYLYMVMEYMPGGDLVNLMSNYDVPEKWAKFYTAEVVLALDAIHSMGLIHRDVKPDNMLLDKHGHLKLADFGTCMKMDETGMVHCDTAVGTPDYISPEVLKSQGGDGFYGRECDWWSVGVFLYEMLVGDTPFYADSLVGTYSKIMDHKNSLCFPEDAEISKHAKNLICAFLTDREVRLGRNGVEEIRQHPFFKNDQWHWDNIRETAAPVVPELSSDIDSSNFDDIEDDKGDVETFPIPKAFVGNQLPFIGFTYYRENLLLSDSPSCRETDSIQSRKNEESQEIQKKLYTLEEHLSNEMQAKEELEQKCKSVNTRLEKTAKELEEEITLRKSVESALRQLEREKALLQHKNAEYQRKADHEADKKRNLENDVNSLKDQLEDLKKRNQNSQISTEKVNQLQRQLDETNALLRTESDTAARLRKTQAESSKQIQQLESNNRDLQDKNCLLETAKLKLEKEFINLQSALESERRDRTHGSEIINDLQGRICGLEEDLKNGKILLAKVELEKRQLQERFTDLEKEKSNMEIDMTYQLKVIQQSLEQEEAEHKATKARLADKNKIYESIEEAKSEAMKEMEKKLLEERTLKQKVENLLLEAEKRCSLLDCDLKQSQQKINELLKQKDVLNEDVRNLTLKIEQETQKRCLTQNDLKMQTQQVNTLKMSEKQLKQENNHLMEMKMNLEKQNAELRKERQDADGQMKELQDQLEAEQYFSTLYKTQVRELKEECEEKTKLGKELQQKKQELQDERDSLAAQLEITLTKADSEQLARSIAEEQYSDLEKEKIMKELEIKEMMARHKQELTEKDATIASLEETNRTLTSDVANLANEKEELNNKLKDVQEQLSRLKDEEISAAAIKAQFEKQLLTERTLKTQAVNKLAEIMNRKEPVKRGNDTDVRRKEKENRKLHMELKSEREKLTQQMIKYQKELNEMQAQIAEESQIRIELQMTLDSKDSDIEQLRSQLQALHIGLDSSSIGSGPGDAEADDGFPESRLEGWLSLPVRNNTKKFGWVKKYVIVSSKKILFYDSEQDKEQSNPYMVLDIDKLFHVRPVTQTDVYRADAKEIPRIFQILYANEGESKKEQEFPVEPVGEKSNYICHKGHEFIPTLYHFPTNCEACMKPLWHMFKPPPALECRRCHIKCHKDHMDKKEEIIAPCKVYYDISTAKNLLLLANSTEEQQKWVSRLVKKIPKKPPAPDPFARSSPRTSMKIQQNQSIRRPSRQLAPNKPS
Data set [6] deals with Vascular endothelial growth factor receptor 2 (Homo sapiens, UniProt P35968).
Vascular endothelial growth factor receptor 2, sequence (P35968 whole entry): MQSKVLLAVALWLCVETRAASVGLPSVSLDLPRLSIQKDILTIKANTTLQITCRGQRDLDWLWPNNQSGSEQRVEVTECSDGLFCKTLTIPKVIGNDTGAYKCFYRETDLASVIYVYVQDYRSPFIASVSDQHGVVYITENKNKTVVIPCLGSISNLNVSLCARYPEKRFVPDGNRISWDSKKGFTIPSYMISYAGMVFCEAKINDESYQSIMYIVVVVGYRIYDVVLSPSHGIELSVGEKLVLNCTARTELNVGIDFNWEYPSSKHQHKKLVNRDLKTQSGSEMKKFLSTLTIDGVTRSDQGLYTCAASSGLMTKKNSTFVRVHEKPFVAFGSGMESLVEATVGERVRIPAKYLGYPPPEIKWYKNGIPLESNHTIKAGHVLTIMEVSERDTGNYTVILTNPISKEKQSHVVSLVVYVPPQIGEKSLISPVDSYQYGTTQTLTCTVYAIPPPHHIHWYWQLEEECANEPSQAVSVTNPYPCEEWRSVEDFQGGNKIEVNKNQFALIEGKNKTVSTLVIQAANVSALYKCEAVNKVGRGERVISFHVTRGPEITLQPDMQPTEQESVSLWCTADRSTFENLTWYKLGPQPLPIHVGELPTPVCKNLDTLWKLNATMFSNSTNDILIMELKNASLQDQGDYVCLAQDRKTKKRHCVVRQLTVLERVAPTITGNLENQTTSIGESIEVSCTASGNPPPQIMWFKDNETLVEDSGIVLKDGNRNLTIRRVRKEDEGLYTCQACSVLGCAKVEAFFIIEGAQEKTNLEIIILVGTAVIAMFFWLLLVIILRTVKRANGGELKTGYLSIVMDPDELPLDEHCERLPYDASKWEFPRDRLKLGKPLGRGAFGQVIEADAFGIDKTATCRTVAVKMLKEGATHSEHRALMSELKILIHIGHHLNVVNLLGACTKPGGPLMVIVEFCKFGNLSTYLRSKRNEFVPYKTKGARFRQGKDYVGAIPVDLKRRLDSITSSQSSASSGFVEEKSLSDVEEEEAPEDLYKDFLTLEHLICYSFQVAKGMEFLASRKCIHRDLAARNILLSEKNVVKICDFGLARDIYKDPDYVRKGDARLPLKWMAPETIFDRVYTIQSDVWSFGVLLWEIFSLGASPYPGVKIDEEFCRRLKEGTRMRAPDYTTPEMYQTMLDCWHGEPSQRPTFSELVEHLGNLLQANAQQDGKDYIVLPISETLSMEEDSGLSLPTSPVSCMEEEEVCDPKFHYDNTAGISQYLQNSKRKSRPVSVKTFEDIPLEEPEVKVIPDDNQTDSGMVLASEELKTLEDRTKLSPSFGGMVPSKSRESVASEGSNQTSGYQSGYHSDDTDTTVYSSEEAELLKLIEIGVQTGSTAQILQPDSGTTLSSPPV
Data set [7] in a line: Bioavailability in rat at 5 mg/kg, po and 2 mg/kg, iv. The class given is ADME, organism-based. The note with it: in vivo.
The target of data set [8] is Tyrosine-protein kinase Lck (Homo sapiens, UniProt P06239).
Tyrosine-protein kinase Lck, sequence (P06239 whole entry): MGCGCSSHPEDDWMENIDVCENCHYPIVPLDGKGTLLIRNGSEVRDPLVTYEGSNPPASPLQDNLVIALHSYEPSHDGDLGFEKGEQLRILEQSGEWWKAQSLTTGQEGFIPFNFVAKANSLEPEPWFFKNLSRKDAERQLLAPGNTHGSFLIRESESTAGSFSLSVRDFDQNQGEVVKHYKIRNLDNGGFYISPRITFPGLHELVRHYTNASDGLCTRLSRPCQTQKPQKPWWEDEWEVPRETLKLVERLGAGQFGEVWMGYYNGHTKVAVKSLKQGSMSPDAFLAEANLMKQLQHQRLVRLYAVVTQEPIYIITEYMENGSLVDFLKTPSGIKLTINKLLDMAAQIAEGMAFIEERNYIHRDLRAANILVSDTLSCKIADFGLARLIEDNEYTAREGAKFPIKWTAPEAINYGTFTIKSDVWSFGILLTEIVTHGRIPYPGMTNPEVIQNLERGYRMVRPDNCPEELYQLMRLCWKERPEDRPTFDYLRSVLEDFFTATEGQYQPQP
Data set [9] addresses Glycogen synthase kinase-3 beta (Homo sapiens, UniProt P49841). The data set is described as follows: Inhibition of GSK3-beta.
Data set [10] in a line: Inhibition of CDK.
The target in data set [11] is c-Jun N-terminal kinase, JNK (Homo sapiens, UniProt P45983+P53779+P45984). The data set can be described thus: Inhibition of JNK. The class given is protein assay.
The target of data set [12] is AMP-activated protein kinase, AMPK. The data set can be described thus: Inhibition of AMPK. The class given is protein-complex assay.
Data set [13] in a line: Percent of unbound drug in dog plasma. The class given is ADME, organism-based, Canis lupus familiaris.
Data set [14] concerns LoVo. The data set is described as follows: Antitumor activity against human LoVo cell line xenografted in athymic mouse at 25 mg/kg/day after 18 days. The format is functional. As to conditions: 432 h. (In general: Xenograft models place foreign cells or tissue in a host animal.)
Data set [15] is described as follows: Apparent permeability from apical to basolateral side of the Caco-2 cell. The format is ADME, cell-based. The note with it: human, read-out: permeability. A general note: Caco-2 cells form a polarised layer with tight junctions and transporters.
Data set [16] is described as follows: Percent of unbound drug in human plasma. The class given is ADME, organism-based.
Data set [17] in a line: Volume of distribution in rat at 5 mg/kg, po and 2 mg/kg, iv. The format is ADME, organism-based. As to conditions: in vivo, read-out: Vdss.
Data set [18] can be described thus: Volume of distribution in dog at 2 mg/kg, po and 1 mg/kg, iv. The format is ADME, organism-based, Canis lupus familiaris. As to conditions: in vivo, read-out: Vdss.
A short description of data set [19]: Solubility in phosphate buffer at pH 7.4. The format is physicochemical.
Data set [20] can be described thus: Half life in rat at 5 mg/kg, po and 2 mg/kg, iv. The class given is ADME, organism-based. The note with it: in vivo.
Data set [21] in a line: Bioavailability in dog at 2 mg/kg, po and 1 mg/kg, iv. The class given is ADME, organism-based, Canis lupus familiaris. As to conditions: in vivo.
Data set [22] addresses Proto-oncogene tyrosine-protein kinase Src (Homo sapiens, UniProt P12931). The data set is described as follows: Inhibition of Src.
A short description of data set [23]: Percent of unbound drug in rat plasma. The class given is ADME, organism-based.
The nature of data set [24]: Inhibition of P450. The class given is ADME.
The nature of data set [25]: Distribution coefficient, logD of the compound. The note with it: octanol/water. The format is physicochemical.
Data set [26] is described as follows: Half life in dog at 2 mg/kg, po and 1 mg/kg, iv. The class given is ADME, organism-based, Canis lupus familiaris. As to conditions: in vivo.
Data set [27] can be described thus: Clearance in dog at 2 mg/kg, po and 1 mg/kg, iv. The class given is ADME, organism-based, Canis lupus familiaris. As to conditions: in vivo.
The target in data set [28] is T2, Serine/threonine-protein kinase Sgk1 (Homo sapiens, UniProt O00141).
T2 sequence (O00141 whole entry): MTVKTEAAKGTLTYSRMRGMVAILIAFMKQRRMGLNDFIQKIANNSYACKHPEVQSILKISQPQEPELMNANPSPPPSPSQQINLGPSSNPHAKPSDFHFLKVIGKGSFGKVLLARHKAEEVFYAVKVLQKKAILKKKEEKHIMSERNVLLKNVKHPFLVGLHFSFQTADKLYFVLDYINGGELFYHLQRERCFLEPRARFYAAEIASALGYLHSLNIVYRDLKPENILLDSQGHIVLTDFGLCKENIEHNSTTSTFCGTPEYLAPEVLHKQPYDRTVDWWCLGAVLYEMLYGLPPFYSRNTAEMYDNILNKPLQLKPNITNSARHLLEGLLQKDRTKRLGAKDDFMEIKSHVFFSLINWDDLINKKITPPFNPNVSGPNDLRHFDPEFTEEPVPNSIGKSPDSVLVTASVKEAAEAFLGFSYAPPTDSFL
The data set is described as follows: Inhibition of SGK.

The target of another data set is MAP kinase p38 (Homo sapiens, UniProt O15264+Q15759+Q16539+P53778).
Data set [29] concerns LoVo. The data set is described as follows: Antitumor activity against human LoVo cell line xenografted in athymic mouse at 50 mg/kg/day after 13 days. The format is functional. The note with it: 312 h.
The nature of data set [30]: Dissociation constant, pKa of the compound. The format is physicochemical.

Values after ≈ are worked out from the molar mass of the structure shown. Some results are limits rather than exact numbers.

Glycogen synthase kinase-3 beta, sequence (P49841 whole entry): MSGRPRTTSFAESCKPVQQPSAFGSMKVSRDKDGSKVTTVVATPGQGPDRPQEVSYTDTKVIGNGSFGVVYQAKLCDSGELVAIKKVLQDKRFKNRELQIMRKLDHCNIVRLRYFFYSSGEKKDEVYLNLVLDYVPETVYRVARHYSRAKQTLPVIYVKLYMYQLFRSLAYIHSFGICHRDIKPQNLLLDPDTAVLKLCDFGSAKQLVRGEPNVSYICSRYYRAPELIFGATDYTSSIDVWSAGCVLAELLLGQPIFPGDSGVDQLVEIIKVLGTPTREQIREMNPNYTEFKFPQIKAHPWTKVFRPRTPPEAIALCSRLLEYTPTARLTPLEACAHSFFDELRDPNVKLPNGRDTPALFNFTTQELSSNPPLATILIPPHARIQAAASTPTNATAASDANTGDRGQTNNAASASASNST
Mitogen-activated protein kinase 1, sequence (P28482 whole entry): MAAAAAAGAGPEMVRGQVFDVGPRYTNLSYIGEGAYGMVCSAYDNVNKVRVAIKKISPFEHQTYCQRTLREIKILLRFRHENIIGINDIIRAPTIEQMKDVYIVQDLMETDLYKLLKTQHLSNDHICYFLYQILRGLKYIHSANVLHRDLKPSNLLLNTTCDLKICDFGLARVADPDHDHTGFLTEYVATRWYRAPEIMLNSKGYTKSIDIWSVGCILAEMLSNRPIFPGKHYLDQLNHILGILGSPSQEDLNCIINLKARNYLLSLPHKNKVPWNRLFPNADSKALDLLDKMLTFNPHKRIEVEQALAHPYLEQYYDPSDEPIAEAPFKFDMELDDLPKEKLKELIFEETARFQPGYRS
Proto-oncogene tyrosine-protein kinase Src, sequence (P12931 2-536 limits assumed): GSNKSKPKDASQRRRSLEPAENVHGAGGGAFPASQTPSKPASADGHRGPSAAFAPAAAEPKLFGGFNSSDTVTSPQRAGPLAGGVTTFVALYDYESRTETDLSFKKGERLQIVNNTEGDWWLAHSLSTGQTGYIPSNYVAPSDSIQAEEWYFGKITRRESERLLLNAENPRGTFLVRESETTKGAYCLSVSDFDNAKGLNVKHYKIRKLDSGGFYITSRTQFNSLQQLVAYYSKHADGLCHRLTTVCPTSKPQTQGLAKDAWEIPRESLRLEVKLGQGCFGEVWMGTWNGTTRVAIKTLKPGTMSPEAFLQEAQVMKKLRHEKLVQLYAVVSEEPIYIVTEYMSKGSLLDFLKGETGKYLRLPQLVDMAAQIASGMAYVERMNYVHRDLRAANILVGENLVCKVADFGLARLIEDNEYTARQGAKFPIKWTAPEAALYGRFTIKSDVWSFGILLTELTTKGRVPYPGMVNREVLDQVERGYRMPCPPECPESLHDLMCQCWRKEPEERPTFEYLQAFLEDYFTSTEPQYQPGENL

Consider `COc1cc2ncnc(Nc3cccc(Cl)c3F)c2cc1CN1CCC[C@H]1C(N)=O`, for which the 50% inhibitory concentration (IC50) in [1], in data set [2], in data set [4], in [5], in [6] and in [8] was over 10 µM in each case. Also, the IC50 in data set [9], in [10], in data set [11], in [12], in data set [22] and in data set [24] was over 10 µM in each case. The concentration for half-maximal inhibition (IC50) (in general, the concentration that gives 50% inhibition) in data set [28] was over 10 µM. In addition, the clearance in data set [3] is 3 mL/min/kg; in [27] it was 5 mL/min/kg. The bioavailability worked out at 111% in data set [7] and 88% in data set [21]. In addition, the unbound share (fraction unbound) (usually free concentration divided by total concentration) in [13] is 0.01; in data set [16], 0.05; in data set [23] it was 0.037. Also, the inhibition in vivo – broadly, the percentage by which the read-out fell short of the control – at 25 mg/kg/day with LoVo [14] came out at 43%. Besides, the Papp A→B in data set [15] is over 13 ×10⁻⁶ cm/s. Also, the figures for the Vd in data set [17] and in data set [18] were 0.7 L/kg and 0.4 L/kg, respectively. For the same compound, the solubility – broadly, the concentration that dissolves in the medium under given conditions – in data set [19] is 260 µM (≈ 112 µg/mL). Also, the half-life – broadly, how long it takes for the measured level to halve – in data set [20] is 396 min; in data set [26], 42 min. The logD (as a rule, lipophilicity at a set pH, counting ionised and neutral species) in data set [25] was 3.6.

In the case of `COc1cc2ncnc(Nc3cccc(Cl)c3F)c2cc1CN(C)[C@@H](C)C(N)=O`, the 50% inhibitory concentration (IC50) in data set [1], in data set [2], in data set [4], in [5], in data set [6] and in [8] was over 10 µM throughout. Besides, the IC50 in data set [9], in data set [10], in [11], in [12], in data set [22] and in data set [24] was over 10 µM each time. Besides, the concentration for half-maximal inhibition (IC50) (against MAP kinase p38; in [28]) was over 10 µM each time. The clearance in data set [3] was 12 mL/min/kg; in data set [27] it was 14 mL/min/kg. The results for the bioavailability in data set [7] and in data set [21] were 75% and 63%, respectively. The figures for the free fraction (fraction unbound) in data set [13], in data set [16] and in data set [23] were 0.01, 0.05 and 0.065, respectively. In addition, the Papp A→B in data set [15] is over 13 ×10⁻⁶ cm/s. Further, the Vd in [17] is 0.8 L/kg; in [18] it was 0.4 L/kg. In [19], this compound yielded a solubility of 40 µM (≈ 16.7 µg/mL). Moreover, the values for the half-life in data set [20] and in [26] were 288 min and 24 min, respectively. In addition, in [25], the logD amounted to 3.4. Further, the inhibition in vivo at 50 mg/kg/day in the data set with LoVo [29] was 60%.

Take `COc1cc2ncnc(Nc3cccc(Cl)c3F)c2cc1CN(C)[C@H](C)C(N)=O`: the IC50 in data set [1], in data set [2], in data set [4], in data set [5], in [6] and in data set [8] was over 10 µM each time. Moreover, the half-maximal inhibitory concentration (IC50) in data set [9], in [10], in data set [11], in data set [12], in data set [22] and in data set [24] was over 10 µM each time. The concentration for half-maximal inhibition (IC50) (against MAP kinase p38; in [28]) was over 10 µM in each case. In data set [3], this compound had a clearance of 6 mL/min/kg. The bioavailability in [7] was found to be 58%. The values for the fraction unbound in data set [13], in data set [16] and in data set [23] were 0.01, 0.05 and 0.06, respectively. The inhibition in vivo at 25 mg/kg/day in the data set with LoVo [14] is 37%. Also, in data set [15], the Papp A→B was over 13 ×10⁻⁶ cm/s. Also, the Vd in [17] stood at 0.6 L/kg. The solubility in [19] was found to be 40 µM (≈ 16.7 µg/mL). In addition, the half-life in data set [20] is 258 min. The logD in [25] was determined as 3.4. For the same compound, the pKa (commonly the pH at which an ionisable group is half protonated) in data set [30] worked out at 6.8.

As for `COc1cc2ncnc(Nc3cccc(Cl)c3F)c2cc1CN(C(C)C)[C@@H](C)C(N)=O`, the IC50 in [1], in data set [2], in [4], in data set [5], in [6] and in data set [9] was over 10 µM in each case. The IC50 in data set [11], in data set [12], in data set [22] and in data set [28] was over 10 µM each time. In addition, the solubility in data set [19] came out at 1 µM (≈ 0.446 µg/mL).
